Here are results for 11 molecules from ChEMBL document CHEMBL4033713, “Click strategy using disodium salts of amino acids improves the water solubility of plinabulin and KPU-300” (Bioorg Med Chem, 2017).

≈ marks a conversion by molar mass, not a printed value.

For data set [1], the target named is T1, Liver carboxylesterase (Sus scrofa, UniProt Q29550).
T1 sequence (Q29550 whole entry): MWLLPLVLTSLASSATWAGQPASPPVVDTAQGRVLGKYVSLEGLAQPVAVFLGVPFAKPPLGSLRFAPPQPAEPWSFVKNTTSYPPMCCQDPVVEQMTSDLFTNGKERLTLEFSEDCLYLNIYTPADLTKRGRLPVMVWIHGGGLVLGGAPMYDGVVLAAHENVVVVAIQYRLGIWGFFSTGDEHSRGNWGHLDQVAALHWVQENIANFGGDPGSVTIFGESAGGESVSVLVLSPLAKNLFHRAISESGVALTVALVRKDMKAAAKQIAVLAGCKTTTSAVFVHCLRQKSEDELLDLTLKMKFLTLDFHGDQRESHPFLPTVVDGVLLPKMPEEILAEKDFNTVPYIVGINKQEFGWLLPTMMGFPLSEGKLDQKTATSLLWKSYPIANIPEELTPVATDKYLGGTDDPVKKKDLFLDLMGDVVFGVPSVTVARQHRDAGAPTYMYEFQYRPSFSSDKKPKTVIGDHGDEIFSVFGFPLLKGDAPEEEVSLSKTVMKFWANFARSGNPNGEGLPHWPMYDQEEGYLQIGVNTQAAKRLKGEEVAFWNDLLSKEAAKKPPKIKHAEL
In words: Stability of the compound assessed as porcine liver esterase-mediated hydrolysis by measuring compound remaining after 48 hrs by HPLC method. It counts as ADME. Conditions: pig, read-out: Stability.

Data set [2] in a line: Solubility of the compound in distilled water after 15 mins by HPLC method. It is filed as physicochemical.
Data set [3] deals with T1, Liver carboxylesterase. In words: Drug metabolism assessed as porcine liver carboxylic-ester hydrolase-mediated compound hydrolysis by measuring half-life by HPLC analysis. It counts as ADME. Conditions: pig, porcine liver carboxylic-ester hydrolase (liver esterase).
Data set [4] in a line: Solubility of the compound in water. It counts as physicochemical.
Data set [5] addresses T1, Liver carboxylesterase. The experiment in a line: Drug level treated with Sodium (S)-2-(4-(4-((((3Z,6Z)-6-benzylidene-3-((5-(tertbutyl)-1H-imidazol-4-yl)methylene)-5-oxo-3,4,5,6-tetrahydropyrazin-2-yl)oxy)methoxy)-4-oxobutyl)-1H-1,2,3-triazol-1-yl)pentanedioate assessed as porcine liver carboxylic-ester hydrolase-mediated metabolite formation after 48 hrs by HPLC method. Particulars: pig.

In data set [6] the target is T1, Liver carboxylesterase. The experiment in a line: Drug level treated with Sodium (S)-2-(4-(4-((((3Z,6Z)-6-benzylidene-3-((5-(tertbutyl)-1H-imidazol-4-yl)methylene)-5-oxo-3,4,5,6-tetrahydropyrazin-2-yl)oxy)methoxy)-4-oxobutyl)-1H-1,2,3-triazol-1-yl)succinate assessed as porcine liver carboxylic-ester hydrolase-mediated metabolite formation after 48 hrs by HPLC method. It is filed as ADME. Conditions: pig.

The target in data set [7] is T1, Liver carboxylesterase. The experiment in a line: Drug level treated with Sodium (S)-2-(4-(4-((((3Z,6Z)-6-(3-benzoylbenzylidene)-5-oxo-3-(pyridine-2-ylmethylene)-3,4,5,6-tetrahydropyrazin-2-yl)oxy)methoxy)-4-oxobutyl)-1H-1,2,3-triazol-1-yl)succinate assessed as porcine liver carboxylic-ester hydrolase-mediated metabolite formation after 48 hrs by HPLC method. It counts as ADME. Particulars: pig.

In data set [8] the target is T1, Liver carboxylesterase. In words: Drug metabolism assessed as porcine liver carboxylic-ester hydrolase-mediated compound hydrolysis by measuring half-life at 500 ug by HPLC analysis. It counts as ADME. Particulars: pig, porcine liver carboxylic-ester hydrolase (liver esterase).

One may read the solubility as the dissolved amount per volume that the medium holds. Higher therefore signals much dissolved substance. A word on the half-life: it is how long it takes for the measured level to halve. As to `O=C(O)CC(C(=O)O)n1cc(CCCC(=O)OCOc2n/c(=C\c3cccc(C(=O)c4ccccc4)c3)c(=O)[nH]/c2=C\c2ccccn2)nn1` (single isomer, unassigned), at Liver carboxylesterase [1], the remaining at 48 h is 20%. In addition, in data set [2], the solubility at 0.25 h was determined as 80000 µg/mL (≈ 118000 µM). Further, the half-life at Liver carboxylesterase [3] is 8.7 h. Take `CC(C)(C)c1[nH]cnc1/C=c1\[nH]c(=O)/c(=C/c2ccccc2)nc1OCOC(=O)CCCc1cn([C@@H](CC(=O)[O-])C(=O)[O-])nn1.[Na+].[Na+]`: the solubility at 0.25 h in data set [2] was more than 100000 µg/mL. Further, at Liver carboxylesterase [3], the half-life is 12 h.

For the molecule `CC(C)(C)c1[nH]cnc1/C=c1\[nH]c(=O)/c(=C/c2ccccc2)nc1OCOC(=O)CCCc1cn([C@@H](CO)C(=O)[O-])nn1.[Na+]`, the half-life on Liver carboxylesterase [3] was 1 h. Further, the solubility in data set [4] amounted to 6380 µg/mL. Take `CC(C)(C)c1[nH]cnc1/C=c1\[nH]c(=O)/c(=C/c2ccccc2)[nH]c1=O` [PLINABULIN]: the Drug metabolism result at Liver carboxylesterase [5] and on Liver carboxylesterase [6] was “Metabolite_Detected” in each case. The molecule also gave a solubility in data set [4] of less than 0.1 µg/mL.

`C=O` [FORMALDEHYDE]: on Liver carboxylesterase [5], the Drug metabolism result is reported as “Metabolite_Detected”. In data set [2], `CC(C)(C)c1[nH]cnc1/C=c1\[nH]c(=O)/c(=C/c2ccccc2)nc1OCOC(=O)CCCc1cn([C@H](CCC(=O)[O-])C(=O)[O-])nn1.[Na+].[Na+]` displayed a solubility at 0.25 h of more than 100000 µg/mL. The half-life on Liver carboxylesterase [3] is 9 h. Consider `CC(C)(C)c1[nH]cnc1/C=c1\[nH]c(=O)/c(=C/c2ccccc2)nc1OCOC(=O)CCCc1cn(CC(=O)[O-])nn1.[Na+]`, for which, in data set [2], the concentration in solution (solubility at 0.25 h) came to 590 µg/mL. As for `O=C(c1ccccc1)c1cccc(/C=c2\[nH]c(=O)/c(=C/c3ccccn3)[nH]c2=O)c1`, the solubility in data set [4] was less than 0.1 µg/mL. Moreover, the Drug metabolism entry on Liver carboxylesterase [7] is given as “Metabolite_Detected”. With `CC(C)(C)c1[nH]cnc1/C=c1\[nH]c(=O)/c(=C/c2ccccc2)nc1OCOC(=O)CCCc1cn([C@@H]2O[C@H](CO)[C@H](O)[C@H](O)[C@H]2O)nn1`, in data set [2], the concentration in solution (solubility at 0.25 h) was 7.5 µg/mL (≈ 11.3 µM).

Consider `CC(C)(C)c1[nH]cnc1/C=c1\[nH]c(=O)/c(=C/c2ccccc2)nc1OCOC(=O)CCCc1cn([C@@H](CCC(=O)[O-])C(=O)[O-])nn1.[Na+].[Na+]`, for which the solubility at 0.25 h in data set [2] was more than 100000 µg/mL. Moreover, the half-life on Liver carboxylesterase [3] is 5.4 h.

Regarding `CC(C)(C)c1[nH]cnc1/C=c1\[nH]c(=O)/c(=C/c2ccccc2)nc1OCOC(=O)CCCc1cn(C[C@H](O)CC(=O)[O-])nn1.[Na+]`, in data set [2], the solubility at 0.25 h is 850 µg/mL. Besides, the half-life at Liver carboxylesterase [8] is 0.37 h.
